Results as given in patent US20240122834A1, “MEDICAMENT FOR PREVENTION AND TREATMENT OF HYPERPIGMENTATION” (SYMRISE AG, priority 2021, published 2024).

Tested on: tyrosinase activity in B16 melanoma cells
Assay: Tyrosinase activity in B16 melanoma cells (lysate, L-dopa to dopachrome, absorbance 475 nm)
Assay type: cell-based
Settings: B16 cells treated for 3 days, untreated control = 100
Excerpt: Tyrosinase is an oxidase that is the rate-limiting enzyme for controlling the production of melanin. The enzyme is mainly involved in two distinct reactions of melanin synthesis; firstly, the hydroxylation of a monophenol and secondly, the conversion of an o-diphenol to the corresponding o-quinone. o-quinone undergoes several reactions to eventually form melanin Tyrosinase is a copper-containing enzyme present in plant and animal tissues that catalyzes the production of melanin and other pigments from tyrosine by oxidation. It is found inside melanosomes which are synthesized in the skin melanocytes. In humans, the tyrosinase enzyme is encoded by the TYR gene.
To measure the tyrosinase activity of the cells, the B16 cells treated for 3 days with several doses of compounds were lysed by incubation at 4° C. for 30 min in lysis buffer (20 mM sodium phosphate, pH 6.8, 1% Triton X-100, 1 mM PMSF, 1 mM EDTA) containing protease inhibitors cocktail. The lysates were centrifuged at 15,000×g for 10 min to obtain the supernatant as the source of tyrosinase. The reaction mixture contained 20 mM phosphate buffer, pH 6.8, 1.25 mM L-dopa (Sigma-Aldrich). After incubation at 37° C. for 2 h, dopachrome formation was monitored by measuring absorbance at a wavelength of 475 nm in a microplate reader (TECAN).

Compound	Tyrosinase Activation (sample conc. 1 μg/ml) [%]	Tyrosinase Activation (sample conc. 10 μg/ml) [%]	also measured
CC(=O)OC1CC(C)CC(C)(C)C1 (stereo not shown) [Mintonat, Homomenthyl acetate]	80	–	–
C=CCOC(=O)COC1CCCCC1 [Cyclogalbanate]	–	73	–
O=Cc1ccccc1 [Benzaldehyde]	–	75	–
CCCCCCCCCCCC=O [Aldehyde C12]	82	–	Tyrosinase Activation (sample conc. 0.1 μg/ml): 78%
CCCCCc1cc(O)c(C/C=C(\C)CCC=C(C)C)c(O)c1 [(−) CBG]	55	–	Tyrosinase Activation (sample conc. 0.5 μg/ml): 62%
COC(Cc1ccccc1)OC [Phenyl acetaldehyde dimethyl acetal]	–	80	Tyrosinase Activation (sample conc. 100 μg/ml): 78%
C=CCOC(=O)COc1ccccc1 [Allyl phenoxyacetate]	62	50	Tyrosinase Activation (sample conc. 50 μg/ml): 48%
CC(=O)CCc1ccccc1 [Benzyl acetone]	–	–	Tyrosinase Activation (sample conc. 5 μg/ml): 90%; Tyrosinase Activation (sample conc. 25 μg/ml): 80%; Tyrosinase Activation (sample conc. 100 μg/ml): 90%
CC(C)=CCC(C)(C)C(=O)C(C)C [Claritone]	–	–	Tyrosinase Activation (sample conc. 2.5 μg/ml): 70%
